Assay results reported in ChEMBL document CHEMBL4011582, “Human drug-induced liver injury severity is highly associated with dual inhibition of liver mitochondrial function and bile salt export pump” (Hepatology, 2014).

How the values were obtained:
Bile salt export pump [1] = target: T1, Bile salt export pump (Homo sapiens, UniProt O95342); test: Inhibition of recombinant human BSEP expressed in baculovirus infected sf21 cell plasma membrane vesicles assessed as reduction in ATP-dependent [3H]-taurocholate uptake in to vesicles after 5 mins by microbeta filtration method; format: ADME
Liver = format: ADME, mitochondria, Rattus norvegicus, Sprague-Dawley
clinical = conditions: human
[2] = Induction of mitochondrial dysfunction in liver mitochondria (unknown origin) assessed as inhibition of mitochondrial respiration
Bile salt export pump [3] = target: T1, Bile salt export pump; test: Inhibition of BSEP (unknown origin); format: ADME
Bile salt export pump [4] = target: T1, Bile salt export pump; test: Inhibition of recombinant human BSEP expressed in baculovirus infected sf9 cell plasma membrane vesicles assessed as reduction in ATP-dependent [3H]-taurocholate uptake in to vesicles preincubated for 10 mins followed by ATP addition measured after 10 to 15 mins by TopCount method; format: ADME
Bile salt export pump [5] = target: T1, Bile salt export pump; format: ADME; conditions: read-out: IC50

T1 sequence (O95342 whole entry): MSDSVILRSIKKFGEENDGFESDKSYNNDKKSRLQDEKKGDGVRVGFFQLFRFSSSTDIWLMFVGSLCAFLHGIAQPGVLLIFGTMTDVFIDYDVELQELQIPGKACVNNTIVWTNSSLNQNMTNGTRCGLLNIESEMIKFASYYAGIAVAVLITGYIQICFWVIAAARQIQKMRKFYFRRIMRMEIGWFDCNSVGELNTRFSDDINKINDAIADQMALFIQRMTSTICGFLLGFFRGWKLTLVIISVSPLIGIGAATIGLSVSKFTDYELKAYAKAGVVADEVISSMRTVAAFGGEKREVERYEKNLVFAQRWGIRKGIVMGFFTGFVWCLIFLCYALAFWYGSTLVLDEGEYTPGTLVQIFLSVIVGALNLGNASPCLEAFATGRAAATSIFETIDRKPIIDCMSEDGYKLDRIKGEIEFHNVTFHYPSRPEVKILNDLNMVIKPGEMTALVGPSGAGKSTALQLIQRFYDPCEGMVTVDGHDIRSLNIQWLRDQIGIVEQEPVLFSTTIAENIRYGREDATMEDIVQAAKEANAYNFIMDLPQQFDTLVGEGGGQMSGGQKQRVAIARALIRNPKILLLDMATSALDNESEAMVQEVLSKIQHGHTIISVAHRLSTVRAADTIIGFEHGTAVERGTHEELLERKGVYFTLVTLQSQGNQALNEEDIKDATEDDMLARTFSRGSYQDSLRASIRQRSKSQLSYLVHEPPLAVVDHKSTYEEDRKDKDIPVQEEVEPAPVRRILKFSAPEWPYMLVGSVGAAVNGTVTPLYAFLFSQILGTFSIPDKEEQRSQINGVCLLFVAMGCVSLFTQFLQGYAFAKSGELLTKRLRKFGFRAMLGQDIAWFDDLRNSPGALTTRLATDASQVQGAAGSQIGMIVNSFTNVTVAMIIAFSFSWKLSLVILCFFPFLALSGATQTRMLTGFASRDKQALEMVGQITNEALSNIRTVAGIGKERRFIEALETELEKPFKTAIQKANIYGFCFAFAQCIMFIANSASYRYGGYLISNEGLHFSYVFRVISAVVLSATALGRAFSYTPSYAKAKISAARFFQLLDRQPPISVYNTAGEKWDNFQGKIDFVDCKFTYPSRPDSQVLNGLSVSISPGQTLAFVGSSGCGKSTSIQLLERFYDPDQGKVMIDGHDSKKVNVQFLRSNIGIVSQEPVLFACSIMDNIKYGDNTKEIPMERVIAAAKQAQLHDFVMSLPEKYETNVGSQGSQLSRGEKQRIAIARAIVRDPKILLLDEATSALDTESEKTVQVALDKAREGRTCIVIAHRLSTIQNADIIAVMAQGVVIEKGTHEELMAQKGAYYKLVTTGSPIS

In the case of C[N+](C)(C)CC(=O)O [BETAINE], the IC50 (Bile salt export pump [1]) is reported as > 1 mM, the IC50 (Liver) is reported as “Non-Toxic” and the Cmax (clinical) is reported as 599 µM.

COCC(=O)NC/C=C/c1ccc2ncnc(Nc3ccc(Oc4ccc(C)nc4)c(C)c3)c2c1 [CP-724714] gave an IC50 [2] of 45 nmol/mg.

CCOC(=O)[C@@]1(CCCCCCOc2ccc(Cl)cc2)CO1 [ETOMOXIR] gave an IC50 (Bile salt export pump [3]) of 11.8 µM.

In the case of CN(CCOc1ccc(CC2SC(=O)NC2=O)cc1)c1ccccn1 (stereo unspecified) [ROSIGLITAZONE], the Cmax (clinical) is reported as 1.04 µM and the IC50 (Bile salt export pump [4]) is reported as 3.75 µM.

With CN[C@@H]1[C@H](O[C@H]2[C@H](O[C@H]3[C@H](O)[C@@H](O)[C@H](N=C(N)N)[C@@H](O)[C@@H]3N=C(N)N)O[C@@H](C)[C@]2(O)C=O)O[C@@H](CO)[C@H](O)[C@H]1O [STREPTOMYCIN] the IC50 (Bile salt export pump [1]) was > 1 mM, the IC50 (Liver) was “Non-Toxic” and the Cmax (clinical) was 64.5 µM.

With CC[C@H]1OC(=O)[C@H](C)C(=O)[C@H](C)[C@@H](O[C@@H]2O[C@H](C)C[C@H](N(C)C)[C@H]2O)[C@](C)(OC)C[C@@H](C)C(=O)[C@H](C)[C@H]2N(CCCCn3cnc(-c4cccnc4)c3)C(=O)O[C@]12C [TELITHROMYCIN] the IC50 (Bile salt export pump [5]) was 30 µM, the IC50 (Liver) was “Non-Toxic” and the Cmax (clinical) was 2.77 µM.

With O=c1n(CCCN2CCN(c3cccc(Cl)c3)CC2)nc2ccccn12 [TRAZODONE] the IC50 (Bile salt export pump [5]) was 90 µM, the IC50 (Liver) was “Non-Toxic” and the Cmax (clinical) was 5.06 µM.
